# The pKa sets of Baltruschat and Czodrowski (2020)
row,Compound,pKa
1,COc1ccc2c(c1)C[NH+](C)CCS2,7.5
2,CNC(=O)c1nc(-c2ccc(Cl)c(S(=O)(=O)Nc3cccc(F)c3C)c2)cnc1N,7.6
3,Nc1nc(-c2ccccn2)nc(N)c1Cc1ccc(Cl)cc1Cl,5.6
4,O=C([O-])c1ccc(-c2nn(C(=O)c3c(Cl)cccc3Cl)c3ccccc23)cc1,3.2
5,N#Cc1cnc(NC(=O)Nc2ccc(Cl)c(Cl)c2)s1,7.5
6,C[C@H](C#Cc1ccc(Cc2ccc(F)cc2)s1)N(O)C(N)=O,10.4
7,O=c1cc(CSc2cccc(F)c2F)nc2cc[nH]n12,7.35
8,CS(=O)(=O)c1ccc(-c2cnc(N)c(-c3ccc(C(F)(F)F)cc3)c2)cc1,4.9
9,Cc1nc2ccccn2c1C(=O)NCc1ccc(Cl)cc1,5.1
10,O=C1N(Cc2c[nH]c3ccccc23)CCCC12CCN(c1ncccn1)CC2,3.8
11,c1ccc(Nc2ncc3ccccc3n2)cc1,3.6
12,O=C1CCCC2(CCN(c3cnc4ccccc4n3)CC2)N1Cc1ccccc1,3.3
13,COCc1nc2ccccc2n1Cc1ccc(C(C)(C)C)cc1,4.2
14,COc1ccc(CNC(=O)c2c(C)nc3ccccn23)cc1,5
15,CCc1ccccc1N(CC)C(=O)C1CCN(c2ncnc3c2nc2n3CCCCC2)CC1,3.9
16,C1=C(c2ccc3ccccc3c2)N2CC[NH+]=C2c2ccccc21,10.2
17,C1=C(c2ccccc2)N2CC[NH+]=C2c2ccccc21,10.3
18,CC(NC(=O)c1ccccc1/N=C/c1c(O)ccc2ccccc12)c1ccccc1 (stereo not given),6.9
19,O=c1[nH]c2ccccc2c(=O)n1CCCl,10
20,Cc1ccc2c(c1)C(=O)C(=O)N2,9.8
21,O=C1CCN(Cc2ccccc2)C(=O)N1,11.7
22,CCOC(=O)N1CCC(C)(C[NH+]2CCC3(CC2)CN(S(C)(=O)=O)c2ncccc23)CC1,8.5
23,CCS(=O)(=O)c1ccc(CC(=O)Nc2nc(-c3ccccc3)c(C(=O)c3ccccc3)s2)cc1,7.9
24,CCc1cc(Br)ccc1S(=O)(=O)NCc1ccccc1,10.6
25,N#Cc1ccc2ccn(-c3ccnc(N)n3)c2c1,4.6

row,Compound,pKa
1,O=C(Nc1cccc(Cl)c1)c1ccccc1O,7.2
2,c1ccc(N2CC[NH2+]CC2)cc1,9
3,Cc1nc(C(=O)[O-])ccc1N(C)Cc1cccc(Cl)c1,4.45
4,COc1ccc(NS(=O)(=O)c2ccc(-n3cccn3)cc2)cc1OC,8.3
5,Cc1csc2ncnc(NCCc3ccc(Cl)cc3)c12,3.9
6,COc1ccc(/C=C/C(=O)N2CCN(c3ccccn3)CC2)cc1,5.3
7,O=C(Nc1cccc(Cl)c1)c1ccc(Cl)cc1O,6.3
8,NC(=O)c1ccc(-c2cc(-c3ccccc3)cnc2N)cc1,5.4
9,N#Cc1ccc2[nH]cc(-c3ccnc(N)n3)c2c1,5.3
10,Cc1csc2ccc3[nH]c4c(c3c12)C[NH+](C)CC4,8.6
11,O=C([O-])c1ccccc1Nc1cc(F)cc(C(F)(F)F)c1,3.9
12,O=C(Nc1ccccc1C(=O)[O-])c1ccc(-c2ccccc2)cc1,3.2
13,Cc1nc(-c2ccc(OCC(C)C)c(C#N)c2)sc1C(=O)[O-],4
14,Cc1cc(C(=O)C[NH+]2CCCC2)c(C)n1-c1ccc(F)cc1,9
15,Cc1ccc(C)n1-c1ccc(C(=O)[O-])c(O)c1,2.3
16,Cc1nc(C#Cc2ccnc(Cl)c2)c(C)n1-c1ccc(F)cc1,4.35
17,Fc1cccc(-c2c[nH]c3ncccc23)c1,4.1
18,O=C(Nc1ccccc1C(=O)[O-])c1cccc(Oc2ccccc2)c1,3.3
19,O=C(NC(=O)c1ccccc1)c1ccccc1,9.9
20,Nc1n[nH]c2cc(Br)ccc12,2.9
21,O=C(NCc1ccc(Cl)cc1)c1cn2c(CCO)cc3cc(C[NH+]4CCOCC4)cc(c1=O)c32,5.9
22,CC(C)Nc1nc(Nc2ccc(C(N)=O)cc2)c2sccc2n1,6.3
23,Cc1cc(C)nc(N2CCC3(CCCN(Cc4nn(C)cc4-c4ccccc4)C3=O)CC2)n1,4.75
24,Nc1nccc(N2CCc3ccc(Br)cc32)n1,6.9
25,CCNC(=O)OC1CCN(c2nncc3cc(OC)c(OC)cc23)CC1,5.4
